Biological target: T1, JAK2 KD kinase (Homo sapiens, UniProt O60674)
T1 construct: JAK2 KD (kinase domain); inferred from Ni-NTA capture and imidazole elution; made in house; host or cells: Sf9 insect cells
Assay: JAK2 Luminescence-Based ATP Depletion Enzyme Assay (JAK2-WT)
Assay type: biochemical
Settings: 10 μM ATP
Method: JAK2 Luminescence-Based ATP Depletion Enzyme Assay
Materials: JAK3tide peptide substrate=GGEEEEYFELVKKKK (Biopeptide, San Diego, Calif.), ATP (Sigma Cat#A-3377, FW=551), HEPES buffer, pH 7.6, 10% Brij 35 (Calbiochem Cat#203728), MgCl2, Staurosporine (Streptomyces sp. Sigma Cat#85660-1MG), white Corning (Costar) 384-well flat bottom plate (VWR Cat#29444-088), JAK2 KD (kinase domain) or JAK2 JH1JH2 V617F kinase (see below), Kinase-Glo™ (Promega Cat#V6712).
Stock Solutions: 5 mM JAK3tide peptide (9.86 mg/ml in 100 mM HEPES, pH 7.6), stored at −20° C.; 100 mM HEPES buffer, pH 7.6, 10% Brij 35; 10 mM ATP (5.51 mg/ml in 100 mM HEPES, pH 7.6) stored at −20° C. (diluted 50 μl into total of 10 ml 100 mM HEPES, pH 7.6, daily=50 μM ATP working stock); 100 mM MgCl2; 200 μM Staurosporine, 2× Kinase-Glo™ reagent (made fresh or stored at −20° C.).
Standard Assay Conditions for 384-well format (20 μl kinase reaction, 40 μl detection reaction): 10 mM MgCl2; 0.1 mM JAK3tide peptide (or, 0.5 mM JAK3tide peptide for JAK2 JH1JH2 V617F assay); 1 μl test compound (in 100% DMSO); 0.4 μg/ml JAK2 KD kinase or 12 μg/ml JAK2 JH1JH2 V617F kinase; 10 μM ATP; 100 mM HEPES+0.01% Brij, pH 7.6. Positive controls contained 5% DMSO with no test compound. Negative controls contained 10 μM staurosporine. The kinase reactions were initiated at time t=0 by the addition of ATP. Kinase reactions were incubated at 21-23° C. for 30 min, after which 20 μl of Kinase-Glo™ reagent were added to each well to quench the kinase reaction and initiate the luminescence reaction. After a 20 min incubation at 21-23° C., the luminescence was detected in a plate-reading luminometer (Tecan Ultra Evolution).
The pellet of Sf9 insect cells produced from a 6 L expression of Jak2 was resuspended in a buffer containing 50 mM Tris-HCl pH 8.5, 250 mM NaCl, 5% Glycerol, 0.2% β-octylglucoside, 5 mM β-mercaptoethanol (or with ligand added to the buffer eg. 5 mM ATP and 10 mM MgCl2; 0.05 mM compound of the invention) in a volume of approximately 40 mL per 1 L of original culture. One tablet of Roche Complete, EDTA-free protease inhibitor cocktail (Cat. #1873580) was added per 1 L of original culture. The suspension was then stirred for 1 hour at 4° C. Debris was removed by centrifugation for 30 minutes at 39,800 g at 4° C. The supernatant was decanted into a 500 mL beaker and 10 mL of 50% Qiagen Ni-NTA Agarose (Cat. #30250) pre-equilibrated in 50 mM Tris-HCl pH 8.5, 250 mM NaCl, 5% Glycerol, 0.2% β-octylglucoside, 5 mM β-mercaptoethanol was added and stirred for 30 minutes at 4° C. The sample was poured through a drip column at 4° C. and washed with 10 column volumes (CV) of 50 mM Tris-HCl pH 8.5, 250 mM NaCl, 5% Glycerol, 0.2% β-octylglucoside, 5 mM β-mercaptoethanol. The protein was eluted in 5 mL fractions using 5 CV of the same buffer containing 250-500 mM Imidazole. Fractions were pooled by SDS-PAGE analysis and the protein concentration determined by a Bradford assay. 5 mM TCEP was added to the pool and the protein sample was concentrated to ˜8 mL by centrifugation in an Amicon Ultra-15 10,000 Da MWCO centrifugal filter unit (Cat. #UFC901024). The concentrated protein was applied to a GE Healthcare HiLoad 16/60 Superdex 75 or 200 prep grade column (Cat. #17-1068-01, Cat. #17-1069-01) equilibrated in 20 mM Tris-HCl pH 8.5, 250 mM NaCl, and 1 mM DTT. Fractions were run on a SDS-PAGE gel and the cleanest fractions were pooled. The protein was concentrated to approximately 6.5-10 mg/mL. Samples in the final buffer (20 mM Tris-HCl pH 8.5, 250 mM NaCl, 1 mM DTT; [or with ligand added eg. 2 mM ATP/5 mM MgCl2 or 0.05 mM compound of the invention]) are delivered fresh to crystallization and stored at 4° C. or flash frozen in liquid nitrogen (as 120 μL aliquots) and stored at −80° C.

T1 sequence (O60674 849-1124 limits assumed): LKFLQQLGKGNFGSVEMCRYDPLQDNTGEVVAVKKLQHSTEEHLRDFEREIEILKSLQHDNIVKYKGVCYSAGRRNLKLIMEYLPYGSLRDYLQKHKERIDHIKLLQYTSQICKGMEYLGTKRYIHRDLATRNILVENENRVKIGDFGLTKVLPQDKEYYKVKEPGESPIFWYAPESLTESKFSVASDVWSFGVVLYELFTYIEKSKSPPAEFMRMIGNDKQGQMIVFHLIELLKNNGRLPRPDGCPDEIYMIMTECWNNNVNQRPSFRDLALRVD

| IC50 [µM] | Compound |
| --- | --- |
| < 0.1 | CCN(CCC#N)C(=O)c1ccc(-c2ccnc(Nc3cccc(C(C)O)c3)n2)s1 (stereo not shown) |
| < 0.1 | CCC(=O)Nc1ccc(-c2ccnc(Nc3cccc(C)c3)n2)s1 |
| < 0.1 | CC(O)c1cccc(Nc2nccc(-c3ccc(-c4cccc(CC#N)c4)s3)n2)c1 (stereo not shown) |
| < 0.1 | CC(O)c1cccc(Nc2nccc(-c3ccc(S(=O)(=O)N(C)C)s3)n2)c1 (stereo not shown) |
| < 0.1 | CN(C)C1CCN(c2cccc(Nc3nccc(-c4ccc(C(=O)NCc5ccco5)s4)n3)c2)C1 (stereo not shown) |
| < 0.1 | CCN(CCC#N)S(=O)(=O)c1ccc(-c2ccnc(Nc3cccc(C(C)O)c3)n2)s1 (stereo not shown) |
| < 0.1 | CC(O)c1cccc(Nc2nccc(-c3ccc(-c4cccnc4)s3)n2)c1 (stereo not shown) |
| < 0.1 | CN(Cc1ccccc1)C(=O)c1ccc(-c2ccnc(Nc3ccc(CCO)cc3)n2)s1 |
| < 0.1 | C[C@@H](NC(=O)c1ccc(-c2ccnc(Nc3cccc(CN4CCN(CCO)CC4)c3)n2)s1)c1ccccc1 |
| < 0.1 | OC1CCN(Cc2cccc(Nc3nccc(-c4ccc(CNc5ccccc5Cl)s4)n3)c2)CC1 |
| < 0.1 | CNC(=O)c1ccc(-c2ccc(-c3ccnc(Nc4cccc(C(C)O)c4)n3)s2)cc1 (stereo not shown) |
| < 0.1 | CCN(CCC#N)S(=O)(=O)c1ccc(-c2ccnc(Nc3cccc(C)c3)n2)s1 |
| < 0.1 | O=C(NCc1ccccc1)c1ccc(-c2ccnc(Nc3ccc(CCO)cc3)n2)s1 |
| < 0.1 | CC(O)c1cccc(Nc2nccc(-c3ccc(S(=O)(=O)Cc4ccccc4)s3)n2)c1 (stereo not shown) |
| < 0.1 | C[C@@H](NC(=O)c1ccc(-c2ccnc(Nc3cccc(CN4CCC(O)CC4)c3)n2)s1)c1ccccc1 |
| < 0.1 | CC(O)c1cccc(Nc2nccc(-c3ccc(-c4ccncc4)s3)n2)c1 (stereo not shown) |

Reference: US7977481B2, “Pyrimidinyl-thiophene kinase modulators” (SGX Pharmaceuticals, Inc., priority 2005, dated 2011)
